How the values were obtained:
WT mice [1] = assay: Insulin sensitivity: blood glucose after administration of insulin in WT mice; assay type: in vivo; settings: 120 minute time course (FIG. 5)
WT mice [2] = assay: Blood glucose level of fed WT mice after administration; assay type: in vivo; settings: for blood glucose level: fed WT mice, level maintained over the study (FIG. 1), vehicle control about 170 mg/dL
Experimental: Oleic acid, nitro-oleic acid, rosiglitazone, or a vehicle control were administered to fed WT mice, and the blood glucose level of these mice was monitored.

ob/ob mice [3] = assay: Blood glucose level of ob/ob mice after administration; assay type: in vivo; settings: ob/ob mice (FIG. 2)
Excerpt: Similar results are observed in experiments involving ob/ob mice.

ob/ob mice [4] = assay: Insulin sensitivity: blood glucose after administration of insulin in ob/ob mice; assay type: in vivo; settings: 120 minute time course (FIG. 6)
[5] = design: species or system mice; settings: mouse, in vivo
Experimental: In addition to reducing blood glucose levels, substantially no increase in body weight was observed when nitro-oleic acid is administered to mice as compared to mice administered a vehicle control, oleic acid, or rosiglitazone.

Row | Compound | blood glucose levels after administration of insulin (WT mice [1]) | blood glucose level (WT mice [2]) | change of blood glucose level over the course of the study (ob/ob mice [3]) | blood glucose levels after administration of insulin (ob/ob mice [4]) | change of body weight over the course of the study [5] | change of blood glucose level over the course of the study (WT mice [2]; fed WT mice (FIG. 1))
1 | 9- or 10-nitro octadecenoic acid [nitro-oleic acid] | initial drop in blood glucose levels after administration of insulin followed by an increase in blood glucose back to normal levels about 120 minutes after the administration of insulin | about 125 mg/dL | effectively reduced the blood glucose level over the course of the study | substantial decrease in blood glucose levels over the course of the 120 minute time period | initially decreased (days 0-10), and then remained substantially constant over the second half of the study | 
2 | CCCCCCCC/C=C\CCCCCCCC(=O)O [oleic acid] |  |  | increased blood glucose level over the course of the study | increased over the 120 minute time course | steady increase in body weight over the course of the study | increased blood glucose levels over the course of the study
3 | CN(CCOc1ccc(CC2SC(=O)NC2=O)cc1)c1ccccn1 (centres unmarked) [rosiglitazone] |  | about 150 mg/dL |  |  | steady increase in body weight over the course of the study | 

From patent US20160038449A1, “MULTI-COMPONENT PHARMACEUTICALS FOR TREATING DIABETES” (Complexa, Inc., priority 2010, published 2016)
